According to patent publication US6472348B1, “Pyridone derivatives and herbicides” (Kumiai Chemical Industry Co., Ltd., priority 1996, dated 2002):

system: pale smartweed (Po); test: Test Example 9: crop plant selectivity by upland field foliage treatment (wheat), herbicidal effects; assay type: in vivo; set-up: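 grade of growth control; 5 = at least 90%; 4 = 70 to 90%; 3 = 50 to 70%; 2 = 30 to 50%; 1 = 10 to 30%; 0 = under 10%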; details: dose 1.6 g ai/10a, 14th day after treatment
Outline: (§1)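 Read-out: weed control and wheat injury, rated by a defined scoring standard 14 days after foliar application.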

SMILES | Herbicidal effects Po
COCOc1cc(-c2ccc(C(F)(F)F)n(C)c2=O)c(Cl)cc1Cl [1-38] | 5

system: common lambsquarters (Ch); test: as above; assay type: in vivo; set-up: scale not given here; details: dose 1.6 g ai/10a, 14th day after treatment
Outline: as §1

SMILES | Herbicidal effects Ch
COCOc1cc(-c2ccc(C(F)(F)F)n(C)c2=O)c(Cl)cc1Cl [1-38] | 5

system: China jute (Ab); test: as above; assay type: in vivo; set-up: scale not given here; details: dose 1.6 g ai/10a, 14th day after treatment
Outline: as §1

SMILES | Herbicidal effects Ab
COCOc1cc(-c2ccc(C(F)(F)F)n(C)c2=O)c(Cl)cc1Cl [1-38] | 5

system: slender amaranth (Am); test: as above; assay type: in vivo; set-up: scale not given here; details: dose 1.6 g ai/10a, 14th day after treatment
Outline: as §1

SMILES | Herbicidal effects Am
COCOc1cc(-c2ccc(C(F)(F)F)n(C)c2=O)c(Cl)cc1Cl [1-38] | 5

system: barnyardgrass (Ec); test: Test Example 1: herbicidal effects by paddy field soil treatment; assay type: in vivo; details: 100 g of the active ingredient per 10 ares, 21st day after the application, index 0-5 of Table 47;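 also: grade of growth control; 5 = at least 90%; 4 = 70 to 90%; 3 = 50 to 70%; 2 = 30 to 50%; 1 = 10 to 30%; 0 = under 10%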
Outline: (§2)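 Flooded paddy-soil pots (3 cm water) sown after puddling/leveling; treatment 100 g a.i./10 ares; greenhouse culture; herbicidal effect rated visually on a scoring scale at 21 d post-application.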

SMILES | Herbicidal effects Ec
COCOc1cc(-c2ccc(C(F)(F)F)n(C)c2=O)c(Cl)cc1Cl [1-38] | 5

system: bulrush (Sc); test: as above; assay type: in vivo; details: 100 g of the active ingredient per 10 ares, 21st day after the application, index 0-5 of Table 47;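 also: grade of growth control; 5 = at least 90%; 4 = 70 to 90%; 3 = 50 to 70%; 2 = 30 to 50%; 1 = 10 to 30%; 0 = under 10%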
Outline: as §2

SMILES | Herbicidal effects Sc
COCOc1cc(-c2ccc(C(F)(F)F)n(C)c2=O)c(Cl)cc1Cl [1-38] | 5

system: monochoria (Mo); test: as above; assay type: in vivo; details: 100 g of the active ingredient per 10 ares, 21st day after the application, index 0-5 of Table 47;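 also: grade of growth control; 5 = at least 90%; 4 = 70 to 90%; 3 = 50 to 70%; 2 = 30 to 50%; 1 = 10 to 30%; 0 = under 10%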
Outline: as §2

SMILES | Herbicidal effects Mo
COCOc1cc(-c2ccc(C(F)(F)F)n(C)c2=O)c(Cl)cc1Cl [1-38] | 5

system: barnyardgrass (Ec); test: Test Example 3: herbicidal effects by upland field foliage treatment; assay type: in vivo; set-up: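 grade of growth control; 5 = at least 90%; 4 = 70 to 90%; 3 = 50 to 70%; 2 = 30 to 50%; 1 = 10 to 30%; 0 = under 10%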; details: 100 g of the active ingredient per 10 ares, evaluated on the 14th day after treatment
Outline: (§3)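 Scoring used a standard effect scale on the 14th day post-treatment, with plants held in a greenhouse throughout. Foliar application was made to weeds raised from seed in sand-filled pots for 2 weeks.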

SMILES | Herbicidal effects Ec
COCOc1cc(-c2ccc(C(F)(F)F)n(C)c2=O)c(Cl)cc1Cl [1-38] | 5

system: Diaitaria ciliaris (Di); test: as above; assay type: in vivo; set-up: scale not given here; details: 100 g of the active ingredient per 10 ares, evaluated on the 14th day after treatment
Outline: as §3

SMILES | Herbicidal effects Di
COCOc1cc(-c2ccc(C(F)(F)F)n(C)c2=O)c(Cl)cc1Cl [1-38] | 5

system: pale smartweed (Po); test: as above; assay type: in vivo; set-up: scale not given here; details: 100 g of the active ingredient per 10 ares, evaluated on the 14th day after treatment
Outline: as §3

SMILES | Herbicidal effects Po
COCOc1cc(-c2ccc(C(F)(F)F)n(C)c2=O)c(Cl)cc1Cl [1-38] | 5

system: common lambsquarters (Ch); test: as above; assay type: in vivo; set-up: scale not given here; details: 100 g of the active ingredient per 10 ares, evaluated on the 14th day after treatment
Outline: as §3

SMILES | Herbicidal effects Ch
COCOc1cc(-c2ccc(C(F)(F)F)n(C)c2=O)c(Cl)cc1Cl [1-38] | 5

system: rice flatsedge (Ci); test: as above; assay type: in vivo; set-up: scale not given here; details: 100 g of the active ingredient per 10 ares, evaluated on the 14th day after treatment
Outline: as §3

SMILES | Herbicidal effects Ci
COCOc1cc(-c2ccc(C(F)(F)F)n(C)c2=O)c(Cl)cc1Cl [1-38] | 5

system: slender amaranth (Am); test: as above; assay type: in vivo; set-up: scale not given here; details: 100 g of the active ingredient per 10 ares, evaluated on the 14th day after treatment
Outline: as §3

SMILES | Herbicidal effects Am
COCOc1cc(-c2ccc(C(F)(F)F)n(C)c2=O)c(Cl)cc1Cl [1-38] | 5

system: barnyardgrass (Ec); test: Test Example 2: herbicidal effects by upland field soil treatment; assay type: in vivo; details: 100 g of the active ingredient per 10 ares, 21st day after the application, index 0-5 of Table 47;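 also: grade of growth control; 5 = at least 90%; 4 = 70 to 90%; 3 = 50 to 70%; 2 = 30 to 50%; 1 = 10 to 30%; 0 = under 10%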
Source text: (§4) (Test on Herbicidal Effects by Upland Field Soil Treatment)

SMILES | Herbicidal effects Ec
COCOc1cc(-c2ccc(C(F)(F)F)n(C)c2=O)c(Cl)cc1Cl [1-38] | 5

system: pale smartweed (Po); test: as above; assay type: in vivo; details: 100 g of the active ingredient per 10 ares, 21st day after the application, index 0-5 of Table 47
Source text: as §4

SMILES | Herbicidal effects Po
COCOc1cc(-c2ccc(C(F)(F)F)n(C)c2=O)c(Cl)cc1Cl [1-38] | 5

system: Digitaria ciliaris (Di); test: as above; assay type: in vivo; details: 100 g of the active ingredient per 10 ares, 21st day after the application, index 0-5 of Table 47
Source text: as §4

SMILES | Herbicidal effects Di
COCOc1cc(-c2ccc(C(F)(F)F)n(C)c2=O)c(Cl)cc1Cl [1-38] | 5

system: common lambsquarters (Ch); test: as above; assay type: in vivo; details: 100 g of the active ingredient per 10 ares, 21st day after the application, index 0-5 of Table 47
Source text: as §4

SMILES | Herbicidal effects Ch
COCOc1cc(-c2ccc(C(F)(F)F)n(C)c2=O)c(Cl)cc1Cl [1-38] | 5

system: rice flatsedge (Ci); test: as above; assay type: in vivo; details: 100 g of the active ingredient per 10 ares, 21st day after the application, index 0-5 of Table 47
Source text: as §4

SMILES | Herbicidal effects Ci
COCOc1cc(-c2ccc(C(F)(F)F)n(C)c2=O)c(Cl)cc1Cl [1-38] | 5

system: slender amaranth (Am); test: as above; assay type: in vivo; details: 100 g of the active ingredient per 10 ares, 21st day after the application, index 0-5 of Table 47
Source text: as §4

SMILES | Herbicidal effects Am
COCOc1cc(-c2ccc(C(F)(F)F)n(C)c2=O)c(Cl)cc1Cl [1-38] | 5

system: corn (Ze); test: Test Example 11: crop plant selectivity by upland field foliage treatment (corn), phytotoxicity; details: upland field foliage treatment, dose 1.6 g ai/10a, 14th day after treatment
Method: (§5) (Test on Crop Plant Selectivity by Upland Field Foliage Treatment)
(§6) In a plastic pot (surface area: 600 cm^2) filled with sand, corn (Ze), pale smartweed (Po), slender amaranth (Am), common lambsquarters (Ch) and China jute (Ab) were sown and cultured in a green house for 2 weeks. […] The plants were then cultured in a green house, and the evaluation of the herbicidal effects and phytotoxicity was conducted on the 14th day after the treatment in accordance with the standards as identified in Table 47.

SMILES | Phytotoxicity Ze
COCOc1cc(-c2ccc(C(F)(F)F)n(C)c2=O)c(Cl)cc1Cl [1-38] | 2

system: wheat (Tr); test: Test Example 9: crop plant selectivity by upland field foliage treatment (wheat), phytotoxicity; details: dose 1.6 g ai/10a, 14th day after treatment
Outline: as §1

SMILES | Phytotoxicity Tr
COCOc1cc(-c2ccc(C(F)(F)F)n(C)c2=O)c(Cl)cc1Cl [1-38] | 2

system: pale smartweed (Po); test: Test Example 11: crop plant selectivity by upland field foliage treatment (corn), herbicidal effects; assay type: in vivo; set-up: scale not given here; details: upland field foliage treatment (corn test), dose 1.6 g ai/10a, 14th day after treatment
Method: as §5, §6

SMILES | Herbicidal effects Po
COCOc1cc(-c2ccc(C(F)(F)F)n(C)c2=O)c(Cl)cc1Cl [1-38] | 5

system: common lambsquarters (Ch); test: as above; assay type: in vivo; set-up: scale not given here; details: upland field foliage treatment (corn test), dose 1.6 g ai/10a, 14th day after treatment
Method: as §5, §6

SMILES | Herbicidal effects Ch
COCOc1cc(-c2ccc(C(F)(F)F)n(C)c2=O)c(Cl)cc1Cl [1-38] | 5

system: China jute (Ab); test: as above; assay type: in vivo; set-up: scale not given here; details: upland field foliage treatment (corn test), dose 1.6 g ai/10a, 14th day after treatment
Method: as §5, §6

SMILES | Herbicidal effects Ab
COCOc1cc(-c2ccc(C(F)(F)F)n(C)c2=O)c(Cl)cc1Cl [1-38] | 5

system: slender amaranth (Am); test: as above; assay type: in vivo; set-up: scale not given here; details: upland field foliage treatment (corn test), dose 1.6 g ai/10a, 14th day after treatment
Method: as §5, §6

SMILES | Herbicidal effects Am
COCOc1cc(-c2ccc(C(F)(F)F)n(C)c2=O)c(Cl)cc1Cl [1-38] | 5
